Assay results: ChEMBL document CHEMBL1828590 (J Med Chem, 2011)
Calls of active or inactive are those of the source. No cut-off for these calls is given here.

Tests used:
Mus musculus [1] = experiment: Toxicity in po dosed athymic nu/nu Harlan mouse with xenografted human HCT116 cells assessed as treatment-related mortality at 200 mg/kg,; assay type: organism-based, HCT-116; set-up: dose 200 mg/kg, route oral; conditions: in vivo
[2] = Apparent oral clearance in Wistar rat at 10 mg/kg, po; assay type: ADME, organism-based; set-up: dose 10 mg/kg, route oral; conditions: in vivo
[3] = Tmax in Wistar rat at 10 mg/kg, po; assay type: ADME, organism-based; set-up: dose 10 mg/kg, route oral; conditions: in vivo
Mus musculus [4] = experiment: Toxicity in nude BALB/c mouse xenografted with human A2780 cells assessed as mortality at 100 mg/kg, po QD for 21 days measured on day 9; assay type: organism-based; set-up: dose 100 mg/kg, route oral; conditions: in vivo, 504 h
[5] = Terminal half life in Wistar rat at 2 mg/kg, iv; assay type: ADME, organism-based; set-up: dose 2 mg/kg, route intravenous; conditions: in vivo, read-out: beta t1/2 (converted)
[6] = Plasma protein binding in dog at 1000 ng/mL; assay type: ADME, cell-free, Canis lupus familiaris; conditions: read-out: PPB (converted)
Mus musculus [7] = experiment: Toxicity in nude BALB/c mouse xenografted with human HCT116 cells assessed as mouse survival at 50 mg/kg, po QD for 21 days measured on day 22; assay type: organism-based, HCT-116; set-up: dose 50 mg/kg, route oral; conditions: in vivo, 504 h
[8] = Half life in dog liver microsomes; assay type: ADME, Canis lupus familiaris, Microsome
[9] = Apparent oral clearance in nude BALB/c mouse at 50 mg/kg, po; assay type: ADME, organism-based; set-up: dose 50 mg/kg, route oral; conditions: in vivo
[10] = Terminal half life in Beagle dog at 10 mg/kg, po; assay type: ADME, organism-based, Canis lupus familiaris; set-up: dose 10 mg/kg, route oral; conditions: in vivo, read-out: beta t1/2 (converted)
[11] = Time required for attaining concentration above IC50 of HDAC1 in tumor of nude BALB/c mouse xenografted with HCT116 cells at 50 mg/kg, po administered as single dose; assay type: ADME, organism-based, Neoplasm, HCT-116; set-up: dose 50 mg/kg, route oral; conditions: in vivo
Ramos [12] = experiment: Antitumor activity against human Ramos cells xenografted in nude BALB/c mouse assessed as tumor growth inhibition at 50 mg/kg, po qd for 21 days measured on day 15; assay type: functional; conditions: read-out: TGI
Mus musculus [13] = experiment: Toxicity in nude BALB/c mouse xenografted with human HCT116 cells assessed as body weight loss at 100 mg/kg, po QD for 21 days measured on day 20; assay type: organism-based, HCT-116; set-up: dose 100 mg/kg, route oral; conditions: in vivo, 504 h
[14] = Volume of distribution at steady state in Wistar rat at 2 mg/kg, iv; assay type: ADME, organism-based; set-up: dose 2 mg/kg, route intravenous; conditions: in vivo, read-out: Vdss
A2780 = experiment: Antitumor activity against human A2780 cells xenografted in nude BALB/c mouse assessed as tumor growth inhibition at 100 mg/kg, po qd for 21 days measured on day 9; assay type: functional; conditions: read-out: TGI
Mus musculus [15] = experiment: Toxicity in nude BALB/c mouse xenografted with human A2780 cells assessed as maximum body weight loss at 50 mg/kg, po QD for 21 days measured on day 13; assay type: organism-based; set-up: dose 50 mg/kg, route oral; conditions: in vivo, 504 h
Mus musculus [16] = experiment: Toxicity in nude BALB/c mouse xenografted with human HCT116 cells assessed as mouse survival at 100 mg/kg, po QD for 21 days measured on day 22; assay type: organism-based, HCT-116; set-up: dose 100 mg/kg, route oral; conditions: in vivo, 504 h
Mus musculus [17] = experiment: Toxicity in nude BALB/c mouse xenografted with human HCT116 cells assessed as body weight loss at 50 mg/kg, po QD for 21 days measured on day 17; assay type: organism-based, HCT-116; set-up: dose 50 mg/kg, route oral; conditions: in vivo, 504 h
MV4-11 = experiment: Antiproliferative activity against human MV4-11 cells; assay type: functional, cell-based
[18] = Half life in human liver microsomes; assay type: ADME, Microsome
HCT-116 [19] = experiment: Antitumor activity against human HCT116 cells xenografted in nude BALB/c mouse assessed as tumor growth inhibition at 100 mg/kg, po qd for 21 days measured on day 18; assay type: functional; conditions: read-out: TGI
[20] = Time required for attaining concentration above IC50 of HDAC1 in tumor of nude BALB/c mouse xenografted with HCT116 cells at 100 mg/kg, po administered as single dose; assay type: ADME, organism-based, Neoplasm, HCT-116; set-up: dose 100 mg/kg, route oral; conditions: in vivo
[21] = Plasma protein binding in human at 1000 ng/mL; assay type: ADME, cell-free; conditions: read-out: PPB (converted)
[22] = Apparent oral clearance in Wistar rat at 2 mg/kg, iv; assay type: ADME, organism-based; set-up: dose 2 mg/kg; conditions: in vivo
Mus musculus [23] = experiment: Toxicity in nude BALB/c mouse xenografted with human MV4-11 cells assessed as maximum body weight loss at 25 mg/kg, po QD for 21 days measured on day 10; assay type: organism-based; set-up: dose 25 mg/kg, route oral; conditions: in vivo, 504 h
[24] = AUC (0 to infinity) in nude BALB/c mouse at 10 mg/kg, iv; assay type: ADME, organism-based; set-up: time infinity, dose 10 mg/kg, route intravenous; conditions: plasma
[25] = Solubility of the compound in water at pH 2.2; assay type: physicochemical
[26] = Cmax in nude BALB/c mouse at 50 mg/kg, po; assay type: ADME, organism-based; set-up: dose 50 mg/kg, route oral; conditions: in vivo
[27] = Tmax in nude BALB/c mouse at 50 mg/kg, po; assay type: ADME, organism-based; set-up: dose 50 mg/kg, route oral; conditions: in vivo
Mus musculus [28] = experiment: Toxicity in nude BALB/c mouse xenografted with human HCT116 cells assessed as body weight loss at 100 mg/kg, po QD for 21 days measured on day 19; assay type: organism-based, HCT-116; set-up: dose 100 mg/kg, route oral; conditions: in vivo, 504 h
HCT-116 [29] = experiment: Antitumor activity against human HCT116 cells xenografted in nude BALB/c mouse assessed as tumor growth inhibition at 100 mg/kg, po qd for 21 days; assay type: functional; conditions: HCT-116, 504 h, read-out: TGI
[30] = Apparent oral clearance in Beagle dog at 10 mg/kg, po; assay type: ADME, organism-based, Canis lupus familiaris; set-up: dose 10 mg/kg, route oral; conditions: in vivo
[31] = Apparent oral clearance in Beagle dog at 2 mg/kg, iv; assay type: ADME, organism-based, Canis lupus familiaris; set-up: dose 2 mg/kg; conditions: in vivo
[32] = Half life in rat liver microsomes; assay type: ADME, Microsome
Mus musculus [33] = experiment: Toxicity in nude BALB/c mouse xenografted with human A2780 cells assessed as mortality at 50 mg/kg, po QD for 21 days measured on day 9; assay type: organism-based; set-up: dose 50 mg/kg, route oral; conditions: in vivo, 504 h
[34] = molecular target: Stromelysin-1 (Homo sapiens) (UniProt P08254); experiment: Inhibition of MMP3 at 10 uM
Mus musculus [35] = experiment: Toxicity in nude BALB/c mouse xenografted with human HCT116 cells assessed as body weight loss at 200 mg/kg, po QD for 21 days measured on day 6; assay type: organism-based, HCT-116; set-up: dose 200 mg/kg, route oral; conditions: in vivo, 504 h
[36] = Cmax in Beagle dog at 10 mg/kg, po; assay type: ADME, organism-based, Canis lupus familiaris; set-up: dose 10 mg/kg, route oral; conditions: in vivo
Mus musculus [37] = experiment: Toxicity in nude BALB/c mouse xenografted with human A2780 cells assessed as maximum body weight loss at 100 mg/kg, po QD for 21 days measured on day 20; assay type: organism-based; set-up: dose 100 mg/kg, route oral; conditions: in vivo, 504 h
[38] = Apparent permeability from apical to basolateral side of human Caco2 cells; assay type: ADME, cell-based; conditions: Caco-2
[39] = Terminal half life in nude BALB/c mouse at 50 mg/kg, po; assay type: ADME, organism-based; set-up: dose 50 mg/kg, route oral; conditions: in vivo, read-out: beta t1/2 (converted)
[40] = Time required for attaining concentration above IC50 of HCT116 in tumor of nude BALB/c mouse xenografted with HCT116 cells at 50 mg/kg, po administered as single dose; assay type: ADME, organism-based, Neoplasm, HCT-116; set-up: dose 50 mg/kg, route oral; conditions: in vivo
[41] = Plasma protein binding in rat at 1000 ng/mL; assay type: ADME, cell-free; conditions: read-out: PPB (converted)
[42] = Volume of distribution at steady state in nude BALB/c mouse at 10 mg/kg, iv; assay type: ADME, organism-based; set-up: dose 10 mg/kg, route intravenous; conditions: in vivo, read-out: Vdss
HCT-116 [43] = experiment: Antitumor activity against human HCT116 cells xenografted in nude BALB/c mouse assessed as tumor growth inhibition at 50 mg/kg, po qd for 21 days; assay type: functional; conditions: HCT-116, 504 h, read-out: TGI
Ramos [44] = experiment: Antiproliferative activity against human Ramos cells; assay type: functional, cell-based
[45] = Volume of distribution at steady state in Beagle dog at 2 mg/kg, iv; assay type: ADME, organism-based, Canis lupus familiaris; set-up: dose 2 mg/kg, route intravenous; conditions: in vivo, read-out: Vdss
PC-3 = experiment: Antitumor activity against human PC3 cells xenografted in nude BALB/c mouse assessed as tumor growth inhibition at 50 mg/kg, po qd for 21 days measured on day 22; assay type: functional; conditions: read-out: TGI
[46] = Terminal half life in Wistar rat at 10 mg/kg, po; assay type: ADME, organism-based; set-up: dose 10 mg/kg, route oral; conditions: in vivo, read-out: beta t1/2 (converted)
[47] = Solubility of the compound in phosphate buffer at pH 4.5; assay type: physicochemical
Mus musculus [48] = experiment: Toxicity in nude BALB/c mouse xenografted with human Ramos cells assessed as mortality at 50 mg/kg, po QD for 21 days measured on day 15; assay type: organism-based; set-up: dose 50 mg/kg, route oral; conditions: in vivo, 504 h

Stromelysin-1 (Homo sapiens), sequence (P08254 100-477 limits assumed): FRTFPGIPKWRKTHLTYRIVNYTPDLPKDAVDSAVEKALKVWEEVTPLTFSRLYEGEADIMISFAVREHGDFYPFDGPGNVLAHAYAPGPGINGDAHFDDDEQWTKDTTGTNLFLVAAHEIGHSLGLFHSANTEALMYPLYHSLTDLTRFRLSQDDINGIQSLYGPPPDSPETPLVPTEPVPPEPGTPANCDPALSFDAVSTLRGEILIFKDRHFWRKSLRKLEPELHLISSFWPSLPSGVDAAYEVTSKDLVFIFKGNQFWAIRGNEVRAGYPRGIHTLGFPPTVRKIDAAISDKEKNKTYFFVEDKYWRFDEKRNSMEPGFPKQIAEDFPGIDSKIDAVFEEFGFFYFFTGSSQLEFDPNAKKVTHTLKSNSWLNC

CCCCCCc1nc2cc(/C=C/C(=O)NO)ccc2n1CCN(C)C
Activity (Mus musculus [1]): Toxic

CCCCc1nc2cc(/C=C/C(=O)NO)ccc2n1CCN(CC)CC.Cl.Cl
CL/F [2]: 2550 mL/min/kg
Tmax [3]: 14.4 min
Activity (Mus musculus [4]): Non-toxic
half-life [5]: 53.4 min
fraction unbound at 1000 ng/mL [6]: 0.165
Activity (Mus musculus [7]): Non-toxic
half-life [8]: > 60 min
CL/F [9]: 453 mL/min/kg
half-life [10]: 247 min
Time [11]: 10 h
inhibition in vivo at 50 mg/kg (Ramos [12]): 75%
Activity (Mus musculus [13]): 19.9%
Vd [14]: 1.66 L/kg
inhibition in vivo at 100 mg/kg (A2780): 63%
Activity (Mus musculus [15]): 8.9%
Activity (Mus musculus [16]): Non-toxic
Activity (Mus musculus [17]): 6.4%
IC50 (MV4-11): 100 nM
half-life [18]: > 60 min
inhibition in vivo at 100 mg/kg (HCT-116 [19]): 98%
Time [20]: 16 h
fraction unbound at 1000 ng/mL [21]: 0.082
CL/F [22]: 74.2 mL/min/kg
Activity (Mus musculus [23]): 10%
AUC(0-inf) [24]: 2.52 µM·h
solubility [25]: > 100 mg/mL
Cmax [26]: 6.1 µM
Tmax [27]: 10.2 min
Activity (Mus musculus [28]): 14.6%
inhibition in vivo at 100 mg/kg (HCT-116 [29]): 90%
CL/F [30]: 38.2 mL/min/kg
CL/F [31]: 24.2 mL/min/kg
half-life [32]: 7.8 min
Activity (Mus musculus [33]): Non-toxic
inhibition [34]: inactive
Activity (Mus musculus [35]): 25.5%
Cmax [36]: 3.56 µM
Activity (Mus musculus [37]): 20%
Papp A→B [38]: 7.04 ×10⁻⁶ cm/s
half-life [39]: 146 min
Time [40]: 5.1 h
fraction unbound at 1000 ng/mL [41]: 0.07
Vd [42]: 3.46 L/kg
inhibition in vivo at 50 mg/kg (HCT-116 [43]): 66%
IC50 (Ramos [44]): 140 nM
Vd [45]: 4.24 L/kg
inhibition in vivo at 50 mg/kg (PC-3): 66%
half-life [46]: 121 min
solubility [47]: > 50 mg/mL
Activity (Mus musculus [48]): Non-toxic
